Assay results as given in ChEMBL document CHEMBL1137176, “Structure-activity relationships of piperazinebenzylamines as potent and selective agonists of the human melanocortin-4 receptor” (Bioorg Med Chem Lett, 2004).

How the values were obtained:
Melanocortin receptor 4 [1] = target: T1, Melanocortin receptor 4 (Homo sapiens, UniProt P32245); test: Displacement of [125I]NDP-MSH from HEK293 cells expressing human melanocortin-4 receptor; type: cell-based
Melanocortin receptor 4 [2] = target: T1, Melanocortin receptor 4; test: Effective concentration against cAMP release in CHO cells expressing human melanocortin-4 receptor; type: functional, cell-based
Melanocortin receptor 5 = Melanocortin receptor 5 (Homo sapiens, UniProt P33032); test: Displacement of [125I]NDP-MSH from HEK293 cells expressing human melanocortin-5 receptor; type: cell-based
Melanocortin receptor 5, sequence (P33032 whole entry): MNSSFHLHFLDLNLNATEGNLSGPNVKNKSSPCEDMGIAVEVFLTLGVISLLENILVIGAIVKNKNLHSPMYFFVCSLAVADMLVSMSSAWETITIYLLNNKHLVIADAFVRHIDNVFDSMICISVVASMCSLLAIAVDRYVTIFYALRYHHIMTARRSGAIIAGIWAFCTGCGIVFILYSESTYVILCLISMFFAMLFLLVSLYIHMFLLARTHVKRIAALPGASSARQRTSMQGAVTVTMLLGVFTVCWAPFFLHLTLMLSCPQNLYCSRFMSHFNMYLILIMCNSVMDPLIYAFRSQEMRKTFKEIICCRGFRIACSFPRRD

[3] = target: T2, Melanocyte-stimulating hormone receptor (Homo sapiens, UniProt Q01726); test: Displacement of [125I]NDP-MSH from HEK293 cells expressing human melanocortin-1 receptor; type: cell-based
Target sequence in this assay (Q01726 whole entry): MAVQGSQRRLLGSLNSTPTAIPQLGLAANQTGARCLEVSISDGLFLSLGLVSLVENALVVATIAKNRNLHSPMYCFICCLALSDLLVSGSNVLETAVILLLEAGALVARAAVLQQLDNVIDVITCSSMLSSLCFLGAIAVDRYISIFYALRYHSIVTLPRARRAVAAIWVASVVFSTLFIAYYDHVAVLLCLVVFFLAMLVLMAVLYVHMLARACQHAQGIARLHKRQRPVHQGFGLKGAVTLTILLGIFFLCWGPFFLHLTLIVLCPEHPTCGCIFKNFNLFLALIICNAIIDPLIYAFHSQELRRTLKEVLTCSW

Melanocortin receptor 3 = Melanocortin receptor 3 (Homo sapiens, UniProt P41968); test: Displacement of [125I]NDP-MSH from HEK293 cells expressing human melanocortin-3 receptor; type: cell-based
Melanocortin receptor 3, sequence (P41968 whole entry): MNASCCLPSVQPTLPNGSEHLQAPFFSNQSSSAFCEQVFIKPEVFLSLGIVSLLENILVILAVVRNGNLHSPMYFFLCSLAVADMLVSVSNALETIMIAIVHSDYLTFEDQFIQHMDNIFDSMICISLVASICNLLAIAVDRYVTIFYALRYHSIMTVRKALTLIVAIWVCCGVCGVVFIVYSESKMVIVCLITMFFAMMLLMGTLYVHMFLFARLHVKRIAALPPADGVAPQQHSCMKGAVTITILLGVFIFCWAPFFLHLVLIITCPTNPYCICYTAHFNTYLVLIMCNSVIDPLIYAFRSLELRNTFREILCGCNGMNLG

Melanocortin receptor 4 [4] = target: T1, Melanocortin receptor 4; test: Effective concentration for cAMP release in HEK293 cells expressing human melanocortin-4 receptor; type: functional, cell-based
Melanocortin receptor 4 [5] = target: T1, Melanocortin receptor 4; test: Percent intrinsic activity of alpha-MSH-stimulated cAMP level in HEK293 cells expressing human melanocortin-4 receptor; type: functional, cell-based
[6] = target: T2, Melanocyte-stimulating hormone receptor; test: Displacement of [125I]NDP-MSH from human melanocortin-1 receptor expressed in HEK 293 cells at 10 uM; type: cell-based; settings: HEK293
Target sequence in this assay (Q01726 whole entry, looked up): as the sequence (Q01726 whole entry) above

T1 sequence (P32245 whole entry): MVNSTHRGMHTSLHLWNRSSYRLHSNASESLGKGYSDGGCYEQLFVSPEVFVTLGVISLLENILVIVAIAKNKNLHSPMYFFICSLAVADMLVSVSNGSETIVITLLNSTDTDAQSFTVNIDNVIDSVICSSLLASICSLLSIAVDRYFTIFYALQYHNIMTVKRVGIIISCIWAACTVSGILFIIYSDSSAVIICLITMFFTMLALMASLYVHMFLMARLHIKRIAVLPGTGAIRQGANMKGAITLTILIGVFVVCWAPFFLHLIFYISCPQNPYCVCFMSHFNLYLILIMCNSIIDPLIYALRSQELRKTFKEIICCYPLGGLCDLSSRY

SMILES	Ki (Melanocortin receptor 4 [1]) [nM]	EC50 (Melanocortin receptor 4 [2]) [nM]	other results
CN(Cc1cccnc1)Cc1ccccc1N1CCN(C(=O)[C@@H](Cc2ccc(Cl)cc2)NC(=O)[C@H]2Cc3ccccc3CN2)CC1	77	94	
CN(Cc1ccccc1)Cc1ccccc1N1CCN(C(=O)[C@@H](Cc2ccc(Cl)cc2)NC(=O)[C@H]2Cc3ccccc3CN2)CC1	84	632	
O=C(O)CCNCc1ccccc1N1CCN(C(=O)[C@@H](Cc2ccc(Cl)cc2)NC(=O)[C@H]2Cc3ccccc3CN2)CC1	490	90	
O=C(N[C@H](Cc1ccc(Cl)cc1)C(=O)N1CCC(Cn2cncn2)(C2CCCCC2)CC1)[C@H]1Cc2ccccc2CN1			Ki (Melanocortin receptor 5): 860 nM
CN(CCc1ccccn1)Cc1ccccc1N1CCN(C(=O)[C@@H](Cc2ccc(Cl)cc2)NC(=O)[C@H]2Cc3ccccc3CN2)CC1	35	190	
O=C(N[C@H](Cc1ccc(Cl)cc1)C(=O)N1CCN(c2ccccc2CNCCc2ccc(F)cc2)CC1)[C@H]1Cc2ccccc2CN1	81	487	
CCN(CC)Cc1ccccc1N1CCN(C(=O)[C@@H](Cc2ccc(Cl)cc2)NC(=O)[C@H]2Cc3ccccc3CN2)CC1	52	240	
O=C(N[C@H](Cc1ccc(Cl)cc1)C(=O)N1CCN(c2ccccc2CNCCCO)CC1)[C@H]1Cc2ccccc2CN1	120	36	
CC(NCCc1ccccc1F)c1ccccc1N1CCN(C(=O)[C@@H](Cc2ccc(Cl)cc2)NC(=O)[C@H]2Cc3ccccc3CN2)CC1 (stereo partly drawn)	33	2060	
O=C(N[C@H](Cc1ccc(Cl)cc1)C(=O)N1CCN(c2ccccc2CN2CCN(c3ccccc3)CC2)CC1)[C@H]1Cc2ccccc2CN1	145	300	
CCCC(=O)C1(C2CCCCC2)CCN(C(=O)[C@@H](Cc2ccc(Cl)cc2)NC(=O)[C@@H](Cc2ncc[nH]2)NC(=O)c2ccccc2)CC1		2.9	
O=C(N[C@H](Cc1ccc(Cl)cc1)C(=O)N1CCN(c2ccccc2CNCCc2cccc(F)c2)CC1)[C@H]1Cc2ccccc2CN1	14	460	
CN(CCO)Cc1ccccc1N1CCN(C(=O)[C@@H](Cc2ccc(Cl)cc2)NC(=O)[C@H]2Cc3ccccc3CN2)CC1	55	40	
COCCN(C)Cc1ccccc1N1CCN(C(=O)[C@@H](Cc2ccc(Cl)cc2)NC(=O)[C@H]2Cc3ccccc3CN2)CC1	49	51	
O=C(N[C@H](Cc1ccc(Cl)cc1)C(=O)N1CCN(c2ccccc2CNCc2ccco2)CC1)[C@H]1Cc2ccccc2CN1	53	274	
O=C(N[C@H](Cc1ccc(Cl)cc1)C(=O)N1CCN(c2ccccc2CNCCc2ccccc2F)CC1)[C@H]1Cc2ccccc2CN1	27	910	Ki (Melanocortin receptor 5): 260 nM; Ki (Melanocortin receptor 3): 2300 nM
O=C(N[C@H](Cc1ccc(Cl)cc1)C(=O)N1CCN(c2ccccc2CNCCc2cccs2)CC1)[C@H]1Cc2ccccc2CN1			Ki [3]: 6000 nM; Ki (Melanocortin receptor 5): 240 nM; Ki (Melanocortin receptor 3): 1800 nM
O=C(N[C@H](Cc1ccc(Cl)cc1)C(=O)N1CCN(c2ccccc2CN2CCC(N3CCCC3)CC2)CC1)[C@H]1Cc2ccccc2CN1	24	146	
O=C(N[C@H](Cc1ccc(Cl)cc1)C(=O)N1CCN(c2ccccc2Cn2cncn2)CC1)[C@H]1Cc2ccccc2CN1	270	110	inhibition [6]: 36%; Ki (Melanocortin receptor 5): 1200 nM

Now from value to compound, other results behind:

Ki (Melanocortin receptor 4 [1]) [nM]	EC50 (Melanocortin receptor 4 [2]) [nM]	SMILES	other results
12	138	CC(NCc1ccco1)c1ccccc1N1CCN(C(=O)[C@@H](Cc2ccc(Cl)cc2)NC(=O)[C@H]2Cc3ccccc3CN2)CC1 (stereo partly drawn)	
23	174	CC(NC1CC1)c1ccccc1N1CCN(C(=O)[C@@H](Cc2ccc(Cl)cc2)NC(=O)[C@H]2Cc3ccccc3CN2)CC1 (stereo partly drawn)	
13	12	CC(N[C@H]1CCNC1)c1ccccc1N1CCN(C(=O)[C@@H](Cc2ccc(Cl)cc2)NC(=O)[C@H]2Cc3ccccc3CN2)CC1 (stereo partly drawn)	Ki [3]: 2100 nM; Ki (Melanocortin receptor 5): 590 nM; Ki (Melanocortin receptor 3): 3600 nM
127	91	NCCNCc1ccccc1N1CCN(C(=O)[C@@H](Cc2ccc(Cl)cc2)NC(=O)[C@H]2Cc3ccccc3CN2)CC1	
90	253	O=C(N[C@H](Cc1ccc(Cl)cc1)C(=O)N1CCN(c2ccccc2CNC2CC2)CC1)[C@H]1Cc2ccccc2CN1	
11	72	CC(NC1CCCC1)c1ccccc1N1CCN(C(=O)[C@@H](Cc2ccc(Cl)cc2)NC(=O)[C@H]2Cc3ccccc3CN2)CC1 (stereo partly drawn)	
6.4	3.8	CC(NC1CCCNC1)c1ccccc1N1CCN(C(=O)[C@@H](Cc2ccc(Cl)cc2)NC(=O)[C@H]2Cc3ccccc3CN2)CC1 (stereo partly drawn)	EC50 (Melanocortin receptor 4 [4]): 4.7 nM; Ki [3]: 1500 nM; IA (Melanocortin receptor 4 [5]): 100%; Ki (Melanocortin receptor 5): 270 nM; Ki (Melanocortin receptor 3): 2000 nM
13	15	CC(N[C@H]1CCCCC1N)c1ccccc1N1CCN(C(=O)[C@@H](Cc2ccc(Cl)cc2)NC(=O)[C@H]2Cc3ccccc3CN2)CC1 (stereo partly drawn)	
102	208	O=C(N[C@H](Cc1ccc(Cl)cc1)C(=O)N1CCN(c2ccccc2CNCC2CCNCC2)CC1)[C@H]1Cc2ccccc2CN1	
380	274	NCc1ccccc1N1CCN(C(=O)[C@@H](Cc2ccc(Cl)cc2)NC(=O)[C@H]2Cc3ccccc3CN2)CC1	Ki (Melanocortin receptor 5): 2300 nM
66	164	O=C(N[C@H](Cc1ccc(Cl)cc1)C(=O)N1CCN(c2ccccc2CNC2CCCC2)CC1)[C@H]1Cc2ccccc2CN1	
25	34	CC(NC1CCC(N)CC1)c1ccccc1N1CCN(C(=O)[C@@H](Cc2ccc(Cl)cc2)NC(=O)[C@H]2Cc3ccccc3CN2)CC1 (stereo partly drawn)	
19	18	C[C@H]1CN(Cc2ccccc2N2CCN(C(=O)[C@@H](Cc3ccc(Cl)cc3)NC(=O)[C@H]3Cc4ccccc4CN3)CC2)[C@@H](C)CN1	
24	577	CC(NCCc1cccs1)c1ccccc1N1CCN(C(=O)[C@@H](Cc2ccc(Cl)cc2)NC(=O)[C@H]2Cc3ccccc3CN2)CC1 (stereo partly drawn)	
